From article PMC8421526, “Cell-Penetrating Peptides Predicted From CASC3, AKIP1, and AHRR Proteins” (Frontiers in Pharmacology, 2021)
Entries after “also recorded” stand apart in the source; their conditions may differ. Like-named read-outs stand apart in the source and are kept apart here.

Legend:
U87 cells [1] = conditions: for 2-Way ANOVA, MTS assay, treatment group compared to untreated: Table S4 C; for Proliferation in MTS assay compared to the CPP Tat treated group: same concentration of Tat, statistically significant
Description: (§1) The cell proliferation was analyzed with the CellTiter 96® Aqueous Non-Radioactive Cell Proliferation Assay (MTS) (Promega Biotech AB, Sweden) according to the manufacturer’s instructions. For this, 10,000 U87 or CHO cells were seeded 1 day prior to the experiment on transparent 96-well plates. On the experiment day, media was replaced with 90 μl of fresh serum free media. Peptides in the concentration range from 0 to 32 µM were added to the cells. The cells were incubated with the peptides for 20 h or 46 h, following the addition of the reagent and further incubation to reach 24 h or 48 h timepoints. The absorbance of the formazan product was measured at 490 nm with Tecan Sunrise microplate absorbance reader (Tecan Group Ltd., Switzerland) and the percentage of viable cells was calculated using the GraphPad Prism software 5.0 (GraphPad Software, CA, United States).

HeLa cells = test: Internalization of fluorescently labelled peptide, confocal microscopy of live cells; type: cell-based, human; conditions: 4 h; for Fluorescence signal from the peptide in confocal images: fluorescently labelled peptide 10 µM, Hoechst counterstain, 20x; for Entry into cells in confocal images: fluorescently labelled peptide 20 µM, Supplementary Figure S2
Description: 48 h prior to the addition of […], 20,000 HeLa cells were seeded on 8-well Nunc™ Lab-Tek™ (Thermo Scientific™, United States) chamber plates. Before the addition of the peptide solutions media was changed to 225 µl of fresh media. […] After 4 h incubation, the cells were washed with PBS and counterstained with Hoechst 33342. Confocal images were acquired from live cells with Zeiss LSM710 (Carl Zeiss AG, Germany). For detecting the fluorescent label from the peptide, 488 nm laser with […] was used, and for detecting nuclei 405 nm laser with 416–503 filter was used. The images were taken with 20x magnification.

U87, PC3, and HeLa cells [2] = test: Percentage of fluorescent cells after peptide treatment, flow cytometry; type: cell-based, human; conditions: FAM-labelled peptide 10 µM, 2 h, serum free media, trypan blue quenching, Figure 1B; for Percentage of the fluorescent positive cells: threshold set with untreated cells
Description: U87 (human glioblastoma like cells) and HeLa (human cervical cancer) were maintained at 37°C and 5% CO2 in Dulbecco’s Modified Eagle’s Medium (DMEM) (Sigma, Germany). PC3 (human prostate cancer) and CHO cells were maintained in Ham´S F12 media and incubated at 37°C and 5% CO2. Cell media were supplemented with 0.1 mM non-essential amino acids, 1.0 mM sodium pyruvate, 10% fetal bovine serum (FBS) (Sigma, Germany), 100°U ml^−1 penicillin, and […] streptomycin (Invitrogen, Sweden). U87 cell dishes were treated with 0.1% gelatin solution prior to addition of cells and media. The percentage of the fluorescent cells after peptide treatment was assessed using flow cytometry. For flow cytometry, 10,000 cells were seeded on a 96-well plate 1 day prior to the experiment. On the experiment day, the cell media was changed to 90 µl of fresh serum free media followed by the addition of 10 µl of the fluorescently labelled peptide solution. The peptide’s final concentration on the cells was 10 µM. The cells were incubated with the peptides for 2 h, following washes with PBS buffer. 0.25% Trypsin-EDTA was added to detach the cells from the plate and 200 µl of PBS mixed with 1% FBS was added. Shortly before the analysis, 50 µl of 0.4% trypan blue was added to quench the fluorescence outside the cells. The fluorescence detected from the untreated cells was used to set the signal threshold. The results are shown as the percentage of the fluorescent positive cells.

U87 cells [3] = test: Total DNA from cell lysate (PicoGreen dsDNA assay); type: cell-based, human; conditions: 5 µM peptide, 48 h, normalized to untreated cells, average of three wells
Description: Total DNA was measured from U87 cells 48 h after the addition of the peptide solutions. After the incubation, the cells were washed with PBS and lysed as described above. From the cell lysate, DNA was quantified with Quant-iT™ PicoGreen™ dsDNA Assay Kit. The results are shown as the average of measurements from three wells and normalized to untreated cells.

U87, PC3, and HeLa cells [4] = test: Internalization of FAM-labelled peptides, fluorescence from cell lysate; type: cell-based, human; conditions: FAM-labelled peptide 10 µM, 2 h, serum free media, lysis 0.1% Triton X100; cannot distinguish internalized from membrane-attached peptide; Figure 1A
Description: U87 (human glioblastoma like cells) and HeLa (human cervical cancer) were maintained at 37°C and 5% CO2 in Dulbecco’s Modified Eagle’s Medium (DMEM) (Sigma, Germany). PC3 (human prostate cancer) and CHO cells were maintained in Ham´S F12 media and incubated at 37°C and 5% CO2. Cell media were supplemented with 0.1 mM non-essential amino acids, 1.0 mM sodium pyruvate, 10% fetal bovine serum (FBS) (Sigma, Germany), 100°U ml^−1 penicillin, and […] streptomycin (Invitrogen, Sweden). U87 cell dishes were treated with 0.1% gelatin solution prior to addition of cells and media. For assessing the internalization of the peptides from the cell lysate, 50,000 cells were seeded on a 24-well plate 1 day prior to the experiment. On the experiment day, cell media was changed to 450 µl of fresh serum free media followed by the addition of 50 µl of fluorescently labelled peptide solution. The peptide’s final concentration on the cells was 10 µM. The cells were incubated with the peptides for 2 h, following washes with PBS buffer and cell lysis with 100 µl of 0.1% Triton X100. The cell lysate was transferred to black 96-well plate and the fluorescence signal from the fluorescently labelled peptide was measured.

CHO cells = conditions: serum free media, 8 and 32 µM, average of three independent wells
Description: as §1

[5] = Figure 3 24 h, peptide added 0.5 µM
[6] = Figure 3 24 h, peptide added 2 µM
[7] = Figure 3 24 h, peptide added 8 µM
[8] = Figure 3 24 h, peptide added 32 µM
[9] = Figure 3 48 h, peptide added 0.5 µM
[10] = Figure 3 48 h, peptide added 2 µM
[11] = Figure 3 48 h, peptide added 8 µM
[12] = Figure 3 48 h, peptide added 32 µM

Row | Sequence | 2-Way ANOVA, MTS assay, treatment group compared to untreated (U87 cells [1]; [5]) | 2-Way ANOVA, MTS assay, treatment group compared to untreated (U87 cells [1]; [6]) | 2-Way ANOVA, MTS assay, treatment group compared to untreated (U87 cells [1]; [7]) | 2-Way ANOVA, MTS assay, treatment group compared to untreated (U87 cells [1]; [8]) | 2-Way ANOVA, MTS assay, treatment group compared to untreated (U87 cells [1]; [9]) | 2-Way ANOVA, MTS assay, treatment group compared to untreated (U87 cells [1]; [10]) | 2-Way ANOVA, MTS assay, treatment group compared to untreated (U87 cells [1]; [11]) | 2-Way ANOVA, MTS assay, treatment group compared to untreated (U87 cells [1]; [12]) | Fluorescence signal from the peptide in confocal images (HeLa cells) | Percentage of the fluorescent positive cells (U87, PC3, and HeLa cells [2]) | Fluorescence signal from the cell lysate (internalization) (U87, PC3, and HeLa cells [4]) | Fluorescent signal in flow cytometry (detectable or not) (U87, PC3, and HeLa cells [2]) | other results
1 | VLERAKRRAV [AKIP1_27-37] | ns (P > 0.05 – ns) | * (p < 0.05 - *) | * (p < 0.05 - *) | * (p < 0.05 - *) | ns (P > 0.05 – ns) | * (p < 0.05 - *) | * (p < 0.05 - *) | ** (p < 0.01 - **) | fluorescence signal from the peptides can be seen in the cells | more than 10% | highest fluorescence intensities |  | Amount of total DNA (U87 cells [3]): decreased amount of total DNA
2 | NTKRRLEGAKKA [CCNL2_354-365, predicted CPP from Cyclin L2, C-terminally amidated] |  |  |  |  |  |  |  |  |  |  |  | all the peptides except the CCNL2, ING4, and FBXO32 derived peptides had a detectable signal | 
3 | GECTYAGRKRRRPLQK [AHRR8-24, predicted CPP from Aryl hydrocarbon receptor repressor, C-terminally amidated] | ns (P > 0.05 – ns) | * (p < 0.05 - *) | * (p < 0.05 - *) | ** (p < 0.01 - **) |  |  |  |  | fluorescence signal from the peptides can be seen in the cells | more than 10% | highest fluorescence intensities |  | Proliferation in MTS assay compared to the CPP Tat treated group (U87 cells [1]; U87 cells, 0.5, 2, and 8 µM, 48 h): decrease in the proliferation; Viability in MTS assay (U87 cells [1]; U87 cells, serum free media, after 48 h): decreased viability
4 | VAAKKRKKDML [FBXO32_59-69, predicted CPP from F-box only protein 32, C-terminally amidated] |  |  |  |  |  |  |  |  |  |  |  | all the peptides except the CCNL2, ING4, and FBXO32 derived peptides had a detectable signal | 
5 | GRKKRRQRRRPPQ [Tat48-60, known CPP from HIV TAT used as control, C-terminally amidated, reference compound] | ns (P > 0.05 – ns) | ns (P > 0.05 – ns) | ns (P > 0.05 – ns) | * (p < 0.05 - *) | ns (P > 0.05 – ns) | ns (P > 0.05 – ns) | * (p < 0.05 - *) | *** (p < 0.001 - ***) | fluorescence signal from the peptides can be seen in the cells |  |  |  | Toxicity in MTS assay (U87 cells [1]; U87 cells, serum free media, 0-32 µM, after 24 or 48 h): did not show a considerable amount of toxicity; Entry into cells in confocal images (HeLa cells): able to enter into almost all the cells
6 | PDDIKPRRIRKPRY [CASC3_251-264, predicted CPP from CASC3, C-terminally amidated] | ** (p < 0.01 - **) | ** (p < 0.01 - **) | *** (p < 0.001 - ***) | *** (p < 0.001 - ***) | * (p < 0.05 - *) | * (p < 0.05 - *) | * (p < 0.05 - *) | *** (p < 0.001 - ***) | fluorescence signal from the peptides can be seen in the cells; also recorded: strongest and well dispersed signal | more than 10% | highest fluorescence intensities |  | Cell proliferation in MTS assay (CHO cells): proliferation decreased; Proliferation in MTS assay compared to the CPP Tat treated group (U87 cells [1]; U87 cells, 0.5 µM, 24 h): decrease in the proliferation; Cell proliferation in MTS assay (U87 cells [1]; U87 cells, serum free media, 8 and 32 µM): proliferation decreased; Entry into cells in confocal images (HeLa cells): able to enter into almost all the cells
7 | TQKEKKAARARSK [ING4_134-145] |  |  |  |  |  |  |  |  |  |  |  | all the peptides except the CCNL2, ING4, and FBXO32 derived peptides had a detectable signal | 
8 | RKRRESASSSSSVKKAKKP [DMAP1_459-467, predicted CPP from DNA methyltransferase 1-associated protein 1, C-terminally amidated] |  |  |  |  |  |  |  |  |  |  | above control |  | 
